For 15 molecules, IC50 and GI50 results are on record in patent publication US9580390B2, “Indazole compounds as kinase inhibitors and method of treating cancer with same” (University Health Network, priority 2011, dated 2017).

One may read the pIC50 as the negative decadic logarithm of the IC50, by convention in mol/L. As a reminder, the GI50 is the concentration that inhibits growth by half.

Test [1] has as its target T1, human TTK (Homo sapiens, UniProt P33981).
T1 construct: amino terminal GST fusion of full length human TTK; purchased Invitrogen
T1 sequence (P33981 1-857): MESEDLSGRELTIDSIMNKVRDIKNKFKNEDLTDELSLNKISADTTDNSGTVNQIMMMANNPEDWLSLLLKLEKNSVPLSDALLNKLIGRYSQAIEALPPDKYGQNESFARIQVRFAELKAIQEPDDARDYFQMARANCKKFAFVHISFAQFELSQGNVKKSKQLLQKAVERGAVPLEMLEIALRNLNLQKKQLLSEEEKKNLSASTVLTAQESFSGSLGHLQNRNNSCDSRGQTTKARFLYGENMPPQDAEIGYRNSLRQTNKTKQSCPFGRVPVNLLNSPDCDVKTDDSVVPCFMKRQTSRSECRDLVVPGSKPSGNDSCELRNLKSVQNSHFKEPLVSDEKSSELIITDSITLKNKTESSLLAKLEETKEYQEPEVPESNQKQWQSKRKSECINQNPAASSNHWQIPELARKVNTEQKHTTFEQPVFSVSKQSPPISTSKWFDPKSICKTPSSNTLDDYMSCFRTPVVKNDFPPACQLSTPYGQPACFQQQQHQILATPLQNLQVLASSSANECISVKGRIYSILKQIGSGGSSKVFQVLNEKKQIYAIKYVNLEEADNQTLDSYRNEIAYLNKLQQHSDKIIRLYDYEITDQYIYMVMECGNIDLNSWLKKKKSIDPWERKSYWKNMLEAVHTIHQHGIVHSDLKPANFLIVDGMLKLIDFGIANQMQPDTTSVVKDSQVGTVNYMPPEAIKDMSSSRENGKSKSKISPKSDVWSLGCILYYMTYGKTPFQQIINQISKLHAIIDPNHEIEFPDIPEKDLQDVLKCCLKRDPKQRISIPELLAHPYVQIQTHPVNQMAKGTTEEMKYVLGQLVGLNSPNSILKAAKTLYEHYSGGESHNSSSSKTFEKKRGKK
The test is described as follows: TTK inhibition assay (indirect ELISA). The format is biochemical. To be noted: read-out: TTK IC50 Range. On the technique in general: In an ELISA, binding on a coated surface is turned into a signal by an enzyme label.

Test [2] deals with colon cancer cells (HCT116). The test is described as follows: Cancer cell line growth inhibition (SRB assay). The format is cell-based. To be noted: read-out: Cancer Cell Line GI50 Range HCT116. Background: Sulforhodamine B stains cellular protein and so reports cell mass.
Test [3] concerns ovarian cancer cells (PA-1). In words: Cancer cell line growth inhibition (SRB assay). The class given is cell-based. The following applies: read-out: Cancer Cell Line GI50 Range PA-1.
Test [4] deals with TICs (Colon 12). The test is described as follows: Colon tumor-initiating cell growth inhibition (Alamar Blue). The format is cell-based. The following applies: 9 days, read-out: Tumor Initiating Cell GI50 Range Colon 12. (Resazurin is reduced to fluorescent resorufin, in cell work by metabolically active cells.)
Test [5] concerns TICs (Ovarian 2393A). In words: Ovarian tumor-initiating cell growth inhibition (Alamar Blue). The format is cell-based. The following applies: 6 days, read-out: Tumor Initiating Cell GI50 Range Ovarain 2393A.
Setting [6] is: Homo sapiens, HCT-116, HCT116 colon cancer cells, SRB assay.
Where [7] appears, read: PA-1 ovarian cancer cells, SRB assay.
[8] abbreviates: 144 h, ovarian TICs, Alamar Blue.

pIC50: −log10 of the molar value. Where two headings read alike, the source gives them in different places. Bounds are passed on as bounds.

`O=CN1[C@@H]2CC[C@H]1C[C@@H](Oc1ccc(-c3n[nH]c4ccc(C(=O)NC(c5ccsc5)C5CCC5)cc34)cc1)C2` (stereo partly drawn) [Example A329, N-(cyclobutyl(thiophen-3-yl)methyl)-3-(4-(((1R,3R,5S)-8-formyl-8-azabicyclo[3.2.1]octan-3-yl)oxy)phenyl)-1H-indazole-5-carboxamide]: the pIC50 in test [1] was over 7.00. For the same molecule, the GI50 is under 100 nM in test [2] (Homo sapiens, HCT-116); under 100 nM in test [3] (Homo sapiens, PA-1); under 100 nM in test [4] (216 h, Colon 12 TICs); under 100 nM in test [5] (144 h, Ovarian 2393A TICs).
In the case of `CN1CCC(Oc2ccc(-c3n[nH]c4ccc(C(=O)NCC5(c6cccnc6)CCCCC5)cc34)cc2)CC1` [Example A482, 3-(4-((1-methylpiperidin-4-yl)oxy)phenyl)-N-((1-(pyridin-3-yl)cyclohexyl)methyl)-1H-indazole-5-carboxamide], in test [1], the pIC50 was over 7.00. Moreover, the GI50 in test [2] (setting [6]) is 100 to 500 nM; in test [3] (setting [7]), 100 to 500 nM; in test [4] (216 h, colon TICs, Alamar Blue), over 500 nM; in test [5] (setting [8]) it was over 500 nM.
As for `O=C(N[C@H](c1ccccn1)C1CC1)c1ccc2[nH]nc(-c3ccc(N4C5CCC4CC(O)C5)cc3)c2c1` (stereo partly drawn) [Example A307, N-((S)-cyclopropyl(pyridin-2-yl)methyl)-3-(4-((1R,3R,5S)-3-hydroxy-8-azabicyclo[3.2.1]octan-8-yl)phenyl)-1H-indazole-5-carboxamide], the negative logarithm of the IC50 (pIC50) in test [1] is over 7.00. For the same molecule, the 50% growth inhibitory concentration (GI50) in test [2] (HCT116) was under 100 nM; in test [3] (PA-1), under 100 nM; in test [4] (Colon 12 TICs), 100 to 500 nM; in test [5] (Ovarian 2393A TICs) it was 100 to 500 nM.
As to `CC(C)(O)CN1CCC(Oc2ccc(-c3n[nH]c4ccc(C(=O)N[C@H](c5ccccn5)C5CC5)cc34)cc2)CC1` [Example A217, (S)-N-(cyclopropyl(pyridin-2-yl)methyl)-3-(4-((1-(2-hydroxy-2-methylpropyl)piperidin-4-yl)oxy)phenyl)-1H-indazole-5-carboxamide], in test [1], the pIC50 was over 7.00. The concentration for 50% growth inhibition (GI50) is under 100 nM in test [2] (Homo sapiens, HCT-116); under 100 nM in test [3] (Homo sapiens, PA-1); 100 to 500 nM in test [4] (216 h, Colon 12 TICs); 100 to 500 nM in test [5] (144 h, Ovarian 2393A TICs).
Turning to `CN1[C@@H]2CC[C@H]1C[C@@H](Oc1ccc(-c3n[nH]c4ccc(C(=O)NC(c5ncccn5)C5CCCC5)cc34)cc1)C2` (stereo partly drawn) [Example A385, N-(cyclopentyl(pyrimidin-2-yl)methyl)-3-(4-(((1R,3R,5S)-8-methyl-8-azabicyclo[3.2.1]octan-3-yl)oxy)phenyl)-1H-indazole-5-carboxamide], the negative-log IC50 (pIC50) in test [1] was over 7.00. In addition, the GI50 is under 100 nM in test [2] (Homo sapiens, HCT-116); under 100 nM in test [3] (Homo sapiens, PA-1); 100 to 500 nM in test [4] (216 h, Colon 12 TICs); under 100 nM in test [5] (144 h, Ovarian 2393A TICs).
As to `O=CN1C2CCC1CC(Oc1ccc(-c3n[nH]c4ccc(C(=O)N[C@H](c5ccccn5)C5CC5)cc34)cc1)C2` (stereo partly drawn) [Example A322, N-((S)-cyclopropyl(pyridin-2-yl)methyl)-3-(4-(((1R,3R,5S)-8-formyl-8-azabicyclo[3.2.1]octan-3-yl)oxy)phenyl)-1H-indazole-5-carboxamide], in test [1], the negative logarithm of the IC50 (pIC50) was over 7.00. The 50% growth inhibitory concentration (GI50) in test [2] (Homo sapiens, HCT-116) is under 100 nM; in test [3] (Homo sapiens, PA-1), under 100 nM; in test [4] (216 h, Colon 12 TICs), under 100 nM; in test [5] (144 h, Ovarian 2393A TICs) it was under 100 nM.
On to `O=C(N[C@H](c1ccccn1)C1CC1)c1ccc2[nH]nc(-c3ccc(OC4CC5CCC(C4)N5C4COC4)cc3)c2c1` (stereo partly drawn) [Example A320, N-((S)-cyclopropyl(pyridin-2-yl)methyl)-3-(4-(((1R,3R,5S)-8-(oxetan-3-yl)-8-azabicyclo[3.2.1]octan-3-yl)oxy)phenyl)-1H-indazole-5-carboxamide], for which the pIC50 in test [1] is over 7.00. Further, the GI50 in test [2] (Homo sapiens, HCT-116) was under 100 nM; in test [3] (Homo sapiens, PA-1), under 100 nM; in test [4] (216 h, Colon 12 TICs), under 100 nM; in test [5] (144 h, Ovarian 2393A TICs), 100 to 500 nM.
For `O=C(NCC1(N2CCOCC2)CCCCC1)c1ccc2[nH]nc(-c3ccc(N4CCN(C5COC5)CC4)cc3)c2c1` [Example A500, N-((1-morpholinocyclohexyl)methyl)-3-(4-(4-(oxetan-3-yl)piperazin-1-yl)phenyl)-1H-indazole-5-carboxamide], the pIC50 in test [1] was over 7.00. The GI50 was under 100 nM in test [2] (Homo sapiens, HCT-116); under 100 nM in test [3] (Homo sapiens, PA-1); under 100 nM in test [4] (216 h, Colon 12 TICs); under 100 nM in test [5] (144 h, Ovarian 2393A TICs).
Turning to `O=C(N[C@H](c1ccccn1)C1CC1)c1ccc2[nH]nc(-c3ccc(OC4CC5CCC(C4)N5)cc3)c2c1` (stereo partly drawn) [Example A374, 3-(4-((1R,3R,5S)-8-azabicyclo[3.2.1]octan-3-yloxy)phenyl)-N-((S)-cyclopropyl(pyridin-2-yl)methyl)-1H-indazole-5-carboxamide], in test [1], the pIC50 was over 7.00. In addition, the GI50 in test [2] (Homo sapiens, HCT-116) is under 100 nM; in test [3] (Homo sapiens, PA-1) it was under 100 nM; in test [4] (216 h, Colon 12 TICs), over 500 nM; in test [5] (144 h, Ovarian 2393A TICs), 100 to 500 nM.
With `O=CN1C2CCC1CC(Oc1ccc(-c3n[nH]c4ccc(C(=O)N[C@H](c5ccccc5Cl)C5CC5)cc34)cc1)C2` (stereo partly drawn) [Example A350, N-((S)-(2-chlorophenyl)(cyclopropyl)methyl)-3-(4-(((1R,3R,5S)-8-formyl-8-azabicyclo[3.2.1]octan-3-yl)oxy)phenyl)-1H-indazole-5-carboxamide], the pIC50 in test [1] is over 7.00. In addition, the GI50 in test [2] (Homo sapiens, HCT-116) was under 100 nM; in test [3] (Homo sapiens, PA-1), under 100 nM; in test [4] (216 h, Colon 12 TICs) it was under 100 nM; in test [5] (144 h, Ovarian 2393A TICs), under 100 nM.
In the case of `O=C(NCC1(N2CCOCC2)CCCCC1)c1ccc2[nH]nc(-c3ccc(N4CCOCC4)cc3)c2c1` [Example A447, N-((1-morpholinocyclohexyl)methyl)-3-(4-morpholinophenyl)-1H-indazole-5-carboxamide], the pIC50 in test [1] was over 7.00. Further, the GI50 in test [2] (setting [6]) is under 100 nM; in test [3] (setting [7]), under 100 nM; in test [4] (216 h, colon TICs, Alamar Blue), under 100 nM; in test [5] (setting [8]) it was under 100 nM.
Take `CN1CCN(c2ccc(-c3n[nH]c4ccc(C(=O)NCC5(N6CCOCC6)CCCCC5)cc34)cc2)CC1` [Example A453, 3-(4-(4-methylpiperazin-1-yl)phenyl)-N-((1-morpholinocyclohexyl)methyl)-1H-indazole-5-carboxamide]: the pIC50 in test [1] was over 7.00. In addition, the GI50 in test [2] (setting [6]) was under 100 nM; in test [3] (setting [7]), under 100 nM; in test [4] (216 h, colon TICs, Alamar Blue) it was under 100 nM; in test [5] (setting [8]), 100 to 500 nM.
On to `COCCN1CCC(Oc2ccc(-c3n[nH]c4ccc(C(=O)N[C@H](c5cccs5)C5CC5)cc34)cc2)CC1` [Example A163], for which, in test [1], the negative logarithm of the IC50 (pIC50) is over 7.00. Further, the concentration for 50% growth inhibition (GI50) in test [2] (setting [6]) was under 100 nM; in test [3] (setting [7]), under 100 nM; in test [4] (216 h, colon TICs, Alamar Blue) it was 100 to 500 nM; in test [5] (setting [8]) it was 100 to 500 nM.
`CN1CCC(Nc2ccc(-c3n[nH]c4ccc(NC(=O)C(c5ccsc5)N5CCCC5)cc34)cc2)CC1` (stereo not shown) [Example A25]: in test [1], the negative-log IC50 (pIC50) was over 7.00. In addition, the concentration for 50% growth inhibition (GI50) is under 100 nM in test [2] (HCT116 colon cancer cells, SRB assay); 100 to 500 nM in test [4] (colon TICs, Alamar Blue); under 100 nM in test [5] (ovarian TICs, Alamar Blue).
On to `CN1CCC(Oc2ccc(-c3n[nH]c4ccc(C(=O)NCC5(N6CCOCC6)CCCCC5)cc34)cc2)CC1` [Example A449, 3-(4-((1-methylpiperidin-4-yl)oxy)phenyl)-N-((1-morpholinocyclohexyl)methyl)-1H-indazole-5-carboxamide], for which the pIC50 in test [1] was over 7.00. In addition, the 50% growth inhibitory concentration (GI50) in test [2] (setting [6]) is under 100 nM; in test [4] (216 h, colon TICs, Alamar Blue), under 100 nM; in test [5] (setting [8]), 100 to 500 nM.
